Reference: patent US9695154B2, “Heteroaryl inhibitors of sumo activating enzyme” (MILLENNIUM PHARMACEUTICALS, INC., priority 2013, dated 2017)

Molecular target: T1, recombinant human SAE enzyme (Homo sapiens, UniProt Q9UBT2)
T1 sequence (Q9UBT2 1-640): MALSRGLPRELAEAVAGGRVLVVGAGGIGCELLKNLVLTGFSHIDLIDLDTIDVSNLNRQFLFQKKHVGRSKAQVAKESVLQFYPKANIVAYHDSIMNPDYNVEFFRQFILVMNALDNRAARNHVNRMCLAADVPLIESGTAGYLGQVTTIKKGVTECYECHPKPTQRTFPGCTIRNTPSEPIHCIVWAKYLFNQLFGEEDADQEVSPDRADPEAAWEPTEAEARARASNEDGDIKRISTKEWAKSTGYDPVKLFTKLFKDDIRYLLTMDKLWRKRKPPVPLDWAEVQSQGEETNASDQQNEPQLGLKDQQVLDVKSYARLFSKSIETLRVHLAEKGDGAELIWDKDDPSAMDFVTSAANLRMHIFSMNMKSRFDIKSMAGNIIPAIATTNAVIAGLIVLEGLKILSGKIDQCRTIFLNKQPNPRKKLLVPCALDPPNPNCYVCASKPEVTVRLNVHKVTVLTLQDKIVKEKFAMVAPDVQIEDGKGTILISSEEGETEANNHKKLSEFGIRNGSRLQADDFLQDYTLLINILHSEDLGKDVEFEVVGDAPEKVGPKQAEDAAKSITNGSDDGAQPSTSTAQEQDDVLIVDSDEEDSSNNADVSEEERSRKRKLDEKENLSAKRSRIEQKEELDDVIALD
T1 sequence (Q9UBE0 1-346 partner): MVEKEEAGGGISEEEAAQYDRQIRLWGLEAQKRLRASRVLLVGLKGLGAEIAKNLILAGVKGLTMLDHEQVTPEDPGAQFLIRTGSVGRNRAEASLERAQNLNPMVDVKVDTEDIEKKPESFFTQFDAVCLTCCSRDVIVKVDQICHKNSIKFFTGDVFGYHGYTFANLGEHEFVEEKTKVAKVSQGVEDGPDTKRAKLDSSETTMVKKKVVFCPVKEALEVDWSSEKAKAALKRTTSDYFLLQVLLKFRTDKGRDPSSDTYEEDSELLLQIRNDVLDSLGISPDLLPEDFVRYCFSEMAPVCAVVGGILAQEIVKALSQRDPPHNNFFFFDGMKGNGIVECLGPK
Assay: SAE HTRF Enzyme Assay
Format: biochemical
Conditions: for IC50: class symbols A-C; for inhibition at 0.111 µM: compound concentration 0.111 μM, read-out: Percent Inhibition
In short: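 HTRF signal from Eu-anti-Flag/APC-anti-GST pairs reports Sumo-Flag loaded onto Ubc9-GST by 0.11 nM SAE. Reaction: 0.5 μM ATP, 0.125 μM Sumo-Flag, 0.01 μM Ubc9-GST, 5 mM MgCl2, pH 7.5, 105 min, 24° C. Single-concentration % inhibition or IC50 reported.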

| Structure (SMILES) | IC50 | inhibition at 0.111 µM |
| --- | --- | --- |
| Cc1cccc(Cn2ccc(C(=O)c3cncnc3N[C@@H]3C[C@H](COS(N)(=O)=O)[C@@H](O)C3)n2)n1 [Compound I-298, [(1R,2S,4R)-2-hydroxy-4-{[5-({1-[(6-methylpyridin-2-yl)methyl]-1H-pyrazol-3-yl}carbonyl)pyrimidin-4-yl]amino}cyclopentyl]methyl sulfamate] | < 10 nM | 97% |
| NS(=O)(=O)OC[C@H]1C[C@@H](Nc2ncncc2C(=O)c2ccn(Cc3cncc(Br)c3)c2)C[C@@H]1O [Compound I-299, [(1R,2S,4R)-4-{[5-({1-[(5-Bromopyridin-3-yl)methyl]-1H-pyrrol-3-yl}carbonyl)pyrimidin-4-yl]amino}-2-hydroxycyclopentyl]methyl sulfamate] | < 10 nM | 99% |
| NS(=O)(=O)OC[C@H]1C[C@@H](Nc2ncncc2C(=O)c2ccn(Cc3ccccc3)c2)C[C@@H]1O [Compound I-300, [(1R,2S,4R)-4-({5-[(1-Benzyl-1H-pyrrol-3-yl)carbonyl]pyrimidin-4-yl}amino)-2-hydroxycyclopentyl]methyl sulfamate] | < 10 nM | 97% |
| NS(=O)(=O)OC[C@H]1C[C@@H](Nc2ncncc2C(=O)c2ccn(Cc3ccc(F)c(C4CC4)c3)n2)C[C@@H]1O [Compound I-301, {(1R,2S,4R)-4-[(5-{[1-(3-cyclopropyl-4-fluorobenzyl)-1H-pyrazol-3-yl]carbonyl}pyrimidin-4-yl)amino]-2-hydroxycyclopentyl}methyl sulfamate] | < 10 nM | 97% |
| NS(=O)(=O)OC[C@H]1C[C@@H](Nc2ncncc2C(=O)c2ccn(Cc3cccc(OC(F)F)c3)n2)[C@@H](F)[C@@H]1O [Compound I-303, [(1R,2R,3R,4R)-4-{[5-({1-[3-(difluoromethoxy)benzyl]-1H-pyrazol-3-yl}carbonyl)pyrimidin-4-yl]amino}-3-fluoro-2-hydroxycyclopentyl]methyl sulfamate] | < 10 nM | 99% |
| COCCn1ccc(C(=O)c2cncnc2N[C@@H]2C[C@H](COS(N)(=O)=O)[C@@H](O)C2)n1 [Compound I-305, {(1R,2S,4R)-2-hydroxy-4-[(5-{[1-(2-methoxyethyl)-1H-pyrazol-3-yl]carbonyl}pyrimidin-4-yl)amino]cyclopentyl}methyl sulfamate] | 100 to 1000 nM | 32% |
| Cn1nc(Cn2ccc(C(=O)c3cncnc3N[C@@H]3C[C@H](COS(N)(=O)=O)[C@@H](O)C3)c2)cc1C(F)(F)F [Compound I-306, [(1R,2S,4R)-2-hydroxy-4-({5-[(1-{[1-methyl-5-(trifluoromethyl)-1H-pyrazol-3-yl]methyl) 1H pyrrol-3-yl)carbonyl]pyrmidin-4-yl}amino)cyclopentyl]methyl sulfamate] | < 10 nM | 99% |
| NS(=O)(=O)OC[C@H]1C[C@@H](Nc2ncncc2C(=O)c2ccn(Cc3cc(Cl)ccc3Cl)n2)[C@@H](F)[C@@H]1O [Compound I-307, {(1R,2R,3R,4R)-4-[(5-{[1-(2,5-dichlorobenzyl)-1H-pyrazol-3-yl]carbonyl}pyrimidin-4-yl)amino]-3-fluoro-2-hydroxycyclopentyl}methyl sulfamate] | < 10 nM | 98% |
| Cn1cc(C#CCn2ccc(C(=O)c3cncnc3N[C@@H]3C[C@H](COS(N)(=O)=O)[C@@H](O)C3)n2)cn1 [Compound I-308, [(1R,2S,4R)-2-hydroxy-4-{[5-({1-[3-(1-methyl-1H-pyrazol-4-yl)prop-2-yn-1-yl]-1H-pyrazol-3-yl}carbonyl)pyrimidin-4-yl]amino}cyclopentyl]methyl sulfamate] | 100 to 1000 nM | 27% |
| Cc1cc(C(=O)c2cncnc2N[C@@H]2C[C@H](COS(N)(=O)=O)[C@@H](O)C2)nn1Cc1cccc(Br)c1 [Compound I-309, {(1R,2S,4R)-4-[(5-{[1-(3-Bromobenzyl)-5-methyl-1H-pyrazol-3-yl]carbonyl}pyrimidin-4-yl)amino]-2-hydroxycyclopentyl}methyl sulfamate] | < 10 nM | 100% |
| NS(=O)(=O)OC[C@H]1C[C@@H](Nc2ncncc2C(=O)c2cc(Cl)n(Cc3cccc(I)c3)c2)[C@@H](F)[C@@H]1O [Compound I-310, {(1R,2R,3R,4R)-4-[(5-{[5-chloro-1-(3-iodobenzyl)-1H-pyrrol-3-yl]carbonyl}pyrimidin-4-yl)amino]-3-fluoro-2-hydroxycyclopentyl}methyl sulfamate] | < 10 nM | 98% |
| NS(=O)(=O)OC[C@H]1C[C@@H](Nc2ncncc2C(=O)c2ccn(Cc3ccc(Cl)c(Cl)c3)n2)[C@@H](F)[C@@H]1O [Compound I-311, {(1R,2R,3R,4R)-4-[(5-{[1-(3,4-dichlorobenzyl)-1H-pyrazol-3-yl]carbonyl}pyrimidin-4-yl)amino]-3-fluoro-2-hydroxycyclopentyl}methyl sulfamate] | < 10 nM | 98% |
| NS(=O)(=O)OC[C@H]1C[C@@H](Nc2ncncc2C(=O)c2ccn(Cc3cccc(Br)c3)c2)[C@@H](F)[C@@H]1O [Compound I-312, {(1R,2R,3R,4R)-4-[(5-{[1-(3-bromobenzyl)-1H-pyrrol-3-yl]carbonyl}pyrimidin-4-yl)amino]-3-fluoro-2-hydroxycyclopentyl}methyl sulfamate] | < 10 nM | 99% |
| C=CC(=O)Nc1cccc(Cn2ccc(C(=O)c3cncnc3N[C@@H]3C[C@H](COS(N)(=O)=O)[C@@H](O)[C@H]3O)n2)c1 [Compound I-313, [(1R,2R,3S,4R)-4-{[5-({1-[3-(Acryloylamino)benzyl]-1H-pyrazol-3-yl}carbonyl)pyrimidin-4-yl]amino}-2,3-dihydroxycyclopentyl]methyl sulfamate] | < 10 nM | 95% |
| NS(=O)(=O)OC[C@H]1C[C@@H](Nc2ncncc2C(=O)c2ccn(Cc3cc(F)c(F)cc3F)n2)[C@H](O)[C@@H]1O [Compound I-314, {(1R,2R,3S,4R)-2,3-dihydroxy-4-[(5-{[1-(2,4,5-trifluorobenzyl)-1H-pyrazol-3-yl]carbonyl}pyrimidin-4-yl)amino]cyclopentyl}methyl sulfamate] | < 10 nM | 97% |
| NS(=O)(=O)OC[C@H]1C[C@@H](Nc2ncncc2C(=O)c2cc(C(F)(F)F)n(Cc3cccc(Cl)c3)n2)[C@@H](F)[C@@H]1O [Compound I-316, {(1R,2R,3R,4R)-4-[(5-{[1-(3-Chlorobenzyl)-5-(trifluoromethyl)-1H-pyrazol-3-yl]carbonyl}pyrimidin-4-yl)amino]-3-fluoro-2-hydroxycyclopentyl}methyl sulfamate] | < 10 nM | 94% |
| NS(=O)(=O)OC[C@H]1C[C@@H](Nc2ncncc2C(=O)c2ccn(Cc3ccccc3)n2)[C@@H](F)[C@@H]1O [Compound I-317, [(1R,2R,3R,4R)-4-({5-[(1-Benzyl-1H-pyrazol-3-yl)carbonyl]pyrimidin-4-yl}amino)-3-fluoro-2-hydroxycyclopentyl]methyl sulfamate] | < 10 nM | 96% |
| NS(=O)(=O)OC[C@H]1C[C@@H](Nc2ncncc2C(=O)c2ccn(Cc3c(F)c(F)c(F)c(F)c3F)n2)[C@H](O)[C@@H]1O [Compound I-318, {(1R,2R,3S,4R)-2,3-dihydroxy-4-[(5-{[1-(pentafluorobenzyl)-1H-pyrazol-3-yl]carbonyl}pyrimidin-4-yl)amino]cyclopentyl}methyl sulfamate] | < 10 nM | 95% |
| NS(=O)(=O)OC[C@@H]1C[C@@H](Nc2ncncc2C(=O)c2ccn(Cc3cccc(Br)c3)c2)C[C@@H]1O [Compound I-319, {(1S,2S,4R)-4-[(5-{[1-(3-Bromobenzyl)-1H-pyrrol-3-yl]carbonyl}pyrimidin-4-yl)amino]-2-hydroxycyclopentyl}methyl sulfamate] | < 10 nM | 99% |
| NS(=O)(=O)OC[C@H]1C[C@@H](Nc2ncncc2C(=O)c2cc(Cl)n(Cc3ccc(F)c(Br)c3)c2)[C@@H](F)[C@@H]1O [Compound I-320, {(1R,2R,3R,4R)-4-[(5-{[1-(3-bromo-4-fluorobenzyl)-5-chloro-1H-pyrrol-3-yl]carbonyl}pyrimidin-4-yl)amino]-3-fluoro-2-hydroxycyclopentyl}methyl sulfamate] | < 10 nM | 98% |
